Measured values from patent publication US20170216355A1, “Methods and Compositions for Enhancing T Cell Function and Survival” (Augusta University Research Institute, Inc., priority 2016, published 2017).
Entries after “also recorded” stand apart in the source; their conditions may differ.

Columns and labels:
[1] = test system: CD8 T cells from pMel-1 mice; assay: Phenotyping of gp100-activated CD8 T cells (CD62L/CD44 flow cytometry); type: cell-based, mouse; details: for phenotype of CD8 T cells (TCM vs TEM) compared to non-treated cells: after 3 days of stimulation with 1 μM gp100 25-33 (7 days culture); for CD62L expression level: day 3, and day 7 after each stimulation with gp100
Protocol: CD8 T cells from pMel-1 mice were activated in vitro as previously described^5. Briefly, homogenized pMel-1 splenocytes were stimulated with gp10025-33 peptide at a 1 μM concentration (day 0). Cells were cultured in RPMI 1640 (Lonza) supplemented with 10% FBS, penicillin (100 U/mL), streptomycin ([…]), 0.1% β-mercaptoethanol (Life Technologies, Invitrogen) and IL-2 (100 U/ml) (Peprotech) at 37° C. with 5% CO2. pMel-1 cells were cultured with or without the different PI3K inhibitors. The concentration of the inhibitors was maintained throughout the culture by changing the media every 48-72 hours.
On Days 7, 14 and 21, cells were re-stimulated with gp10025-33 peptide at a 1 μM concentration using feeder cells (irradiated WT splenocytes, 4000 Rads) at 1:1 ratio using the same culture conditions.
Cells were labeled with 5 μM Violet Cell Trace (VCT) proliferation dye (Life Technologies, Invitrogen) prior to their stimulation (day 0) following the manufacturers' instructions. The proliferation of CD8 T cells was assessed via VCT dye dilution (day 3) using an LSRII SORP with HTS Flow Cytometer (BD Biosciences). The data were analyzed using FlowJo 10 (Tree Star). The cultured cells were harvested on days 3, 7, 14 and 21 to assess their phenotype. Cells were stained with the following surface marker antibodies (BD Biosciences): APC-Cy7 labeled anti-CD8, FITC labeled anti-Vβ13, PE labeled anti-CD62L, APC labeled anti-CD44, PE-CF594 labeled anti-CD127, APC labeled anti-KLRG-1 in addition to the viability stain 7AAD. All the analyses were performed on viable (7AAD−), Vβ13+CD8+ T cells.

p110α = p110α (Homo sapiens, UniProt P42336); details: cited from earlier work
p110δ = p110δ (Homo sapiens, UniProt O00329); details: cited from earlier work
p110γ = p110γ (Homo sapiens, UniProt P48736); details: cited from earlier work
[2] = test system: CD8 T cells from pMel-1 mice; assay: Proliferation assay (VCT dye dilution) and fold expansion of CD8 T cells; type: cell-based, mouse
Protocol: CD8 T cells from pMel-1 mice were activated in vitro as previously described^5. […] The concentration of the inhibitors was maintained throughout the culture by changing the media every 48-72 hours. […] The data were analyzed using FlowJo 10 (Tree Star). […] Cells were stained with the following surface marker antibodies (BD Biosciences): APC-Cy7 labeled anti-CD8, FITC labeled anti-Vβ13, PE labeled anti-CD62L, APC labeled anti-CD44, PE-CF594 labeled anti-CD127, APC labeled anti-KLRG-1 in addition to the viability stain 7AAD. All the analyses were performed on viable (7AAD−), Vβ13+CD8+ T cells.

[3] = test system: CD8 T cells from pMel-1 mice; assay: Cytometric Bead Array of IL-2, TNF and IFN-γ secretion; type: cell-based, mouse

p110δ, sequence (O00329 whole entry, species assumed): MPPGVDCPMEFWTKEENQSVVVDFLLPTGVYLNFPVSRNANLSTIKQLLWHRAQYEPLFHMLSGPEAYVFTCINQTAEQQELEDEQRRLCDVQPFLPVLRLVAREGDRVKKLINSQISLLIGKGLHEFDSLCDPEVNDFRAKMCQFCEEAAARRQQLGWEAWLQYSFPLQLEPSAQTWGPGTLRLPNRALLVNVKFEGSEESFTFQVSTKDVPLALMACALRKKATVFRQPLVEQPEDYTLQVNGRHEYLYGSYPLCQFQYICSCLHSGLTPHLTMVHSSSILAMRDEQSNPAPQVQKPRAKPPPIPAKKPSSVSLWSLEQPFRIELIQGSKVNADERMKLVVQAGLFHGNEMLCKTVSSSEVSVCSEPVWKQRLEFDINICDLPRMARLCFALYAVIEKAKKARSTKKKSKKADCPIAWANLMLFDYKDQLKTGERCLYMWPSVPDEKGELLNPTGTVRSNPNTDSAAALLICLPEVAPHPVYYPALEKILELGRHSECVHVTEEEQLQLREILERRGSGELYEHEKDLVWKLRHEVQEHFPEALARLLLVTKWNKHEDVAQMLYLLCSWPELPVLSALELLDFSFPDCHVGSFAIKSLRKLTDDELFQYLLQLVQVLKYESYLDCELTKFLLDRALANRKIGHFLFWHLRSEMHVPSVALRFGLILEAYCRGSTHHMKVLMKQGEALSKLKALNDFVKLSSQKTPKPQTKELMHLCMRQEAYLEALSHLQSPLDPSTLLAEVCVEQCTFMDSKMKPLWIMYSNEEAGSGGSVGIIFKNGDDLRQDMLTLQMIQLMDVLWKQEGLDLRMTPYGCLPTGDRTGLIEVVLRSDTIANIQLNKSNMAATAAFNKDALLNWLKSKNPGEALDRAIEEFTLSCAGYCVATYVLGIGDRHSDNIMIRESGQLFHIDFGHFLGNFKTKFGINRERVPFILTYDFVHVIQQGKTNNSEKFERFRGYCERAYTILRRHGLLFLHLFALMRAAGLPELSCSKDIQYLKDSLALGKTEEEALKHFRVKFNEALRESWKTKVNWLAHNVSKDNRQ
p110δ, sequence (P27986 whole entry partner, species assumed): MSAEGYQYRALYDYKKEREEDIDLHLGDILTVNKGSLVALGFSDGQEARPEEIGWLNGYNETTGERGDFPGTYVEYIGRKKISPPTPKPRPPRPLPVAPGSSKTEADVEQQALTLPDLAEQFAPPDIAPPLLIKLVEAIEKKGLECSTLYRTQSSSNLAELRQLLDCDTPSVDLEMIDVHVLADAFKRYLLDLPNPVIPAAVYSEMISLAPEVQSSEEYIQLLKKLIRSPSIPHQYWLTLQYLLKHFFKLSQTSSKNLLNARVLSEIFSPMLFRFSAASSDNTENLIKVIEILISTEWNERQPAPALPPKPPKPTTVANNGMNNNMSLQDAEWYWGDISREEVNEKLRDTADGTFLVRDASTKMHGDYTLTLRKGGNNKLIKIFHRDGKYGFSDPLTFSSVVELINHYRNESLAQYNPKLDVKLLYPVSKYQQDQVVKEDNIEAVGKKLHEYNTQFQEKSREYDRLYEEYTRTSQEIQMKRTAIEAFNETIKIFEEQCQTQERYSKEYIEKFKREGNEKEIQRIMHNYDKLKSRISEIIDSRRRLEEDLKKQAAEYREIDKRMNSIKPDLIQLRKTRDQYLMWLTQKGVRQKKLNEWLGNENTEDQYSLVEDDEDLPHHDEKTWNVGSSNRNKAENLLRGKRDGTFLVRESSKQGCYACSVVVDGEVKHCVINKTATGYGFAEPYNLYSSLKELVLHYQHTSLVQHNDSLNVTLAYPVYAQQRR
p110α, sequence (P42336 whole entry, species assumed): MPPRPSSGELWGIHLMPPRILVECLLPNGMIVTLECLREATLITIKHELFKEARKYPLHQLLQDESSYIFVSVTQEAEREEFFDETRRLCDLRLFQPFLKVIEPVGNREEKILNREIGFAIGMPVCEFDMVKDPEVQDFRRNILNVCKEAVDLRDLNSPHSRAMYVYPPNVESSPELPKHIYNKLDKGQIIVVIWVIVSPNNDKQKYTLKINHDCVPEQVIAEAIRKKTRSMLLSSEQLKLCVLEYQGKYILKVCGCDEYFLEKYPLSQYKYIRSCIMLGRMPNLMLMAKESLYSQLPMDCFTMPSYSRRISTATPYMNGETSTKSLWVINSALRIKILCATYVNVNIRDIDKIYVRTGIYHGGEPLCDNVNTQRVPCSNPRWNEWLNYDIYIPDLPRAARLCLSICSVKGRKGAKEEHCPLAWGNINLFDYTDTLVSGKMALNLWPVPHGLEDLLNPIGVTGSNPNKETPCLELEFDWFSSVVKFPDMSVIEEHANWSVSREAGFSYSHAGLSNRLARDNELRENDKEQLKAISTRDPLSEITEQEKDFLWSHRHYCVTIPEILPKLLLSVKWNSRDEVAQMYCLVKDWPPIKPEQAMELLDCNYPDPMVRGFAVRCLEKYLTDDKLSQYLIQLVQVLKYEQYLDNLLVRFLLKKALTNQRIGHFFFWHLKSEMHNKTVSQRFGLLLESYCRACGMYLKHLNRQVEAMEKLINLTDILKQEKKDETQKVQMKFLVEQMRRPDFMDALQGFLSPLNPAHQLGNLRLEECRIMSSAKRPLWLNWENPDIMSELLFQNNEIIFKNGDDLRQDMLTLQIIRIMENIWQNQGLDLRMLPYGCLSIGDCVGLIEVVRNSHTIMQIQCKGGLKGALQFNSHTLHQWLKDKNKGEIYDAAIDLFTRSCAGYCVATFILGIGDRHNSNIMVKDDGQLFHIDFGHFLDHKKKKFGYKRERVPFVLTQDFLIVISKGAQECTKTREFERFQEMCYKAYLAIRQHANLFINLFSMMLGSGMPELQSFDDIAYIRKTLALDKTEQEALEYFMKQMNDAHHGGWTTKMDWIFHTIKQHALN
p110γ, sequence (P48736 whole entry, species assumed): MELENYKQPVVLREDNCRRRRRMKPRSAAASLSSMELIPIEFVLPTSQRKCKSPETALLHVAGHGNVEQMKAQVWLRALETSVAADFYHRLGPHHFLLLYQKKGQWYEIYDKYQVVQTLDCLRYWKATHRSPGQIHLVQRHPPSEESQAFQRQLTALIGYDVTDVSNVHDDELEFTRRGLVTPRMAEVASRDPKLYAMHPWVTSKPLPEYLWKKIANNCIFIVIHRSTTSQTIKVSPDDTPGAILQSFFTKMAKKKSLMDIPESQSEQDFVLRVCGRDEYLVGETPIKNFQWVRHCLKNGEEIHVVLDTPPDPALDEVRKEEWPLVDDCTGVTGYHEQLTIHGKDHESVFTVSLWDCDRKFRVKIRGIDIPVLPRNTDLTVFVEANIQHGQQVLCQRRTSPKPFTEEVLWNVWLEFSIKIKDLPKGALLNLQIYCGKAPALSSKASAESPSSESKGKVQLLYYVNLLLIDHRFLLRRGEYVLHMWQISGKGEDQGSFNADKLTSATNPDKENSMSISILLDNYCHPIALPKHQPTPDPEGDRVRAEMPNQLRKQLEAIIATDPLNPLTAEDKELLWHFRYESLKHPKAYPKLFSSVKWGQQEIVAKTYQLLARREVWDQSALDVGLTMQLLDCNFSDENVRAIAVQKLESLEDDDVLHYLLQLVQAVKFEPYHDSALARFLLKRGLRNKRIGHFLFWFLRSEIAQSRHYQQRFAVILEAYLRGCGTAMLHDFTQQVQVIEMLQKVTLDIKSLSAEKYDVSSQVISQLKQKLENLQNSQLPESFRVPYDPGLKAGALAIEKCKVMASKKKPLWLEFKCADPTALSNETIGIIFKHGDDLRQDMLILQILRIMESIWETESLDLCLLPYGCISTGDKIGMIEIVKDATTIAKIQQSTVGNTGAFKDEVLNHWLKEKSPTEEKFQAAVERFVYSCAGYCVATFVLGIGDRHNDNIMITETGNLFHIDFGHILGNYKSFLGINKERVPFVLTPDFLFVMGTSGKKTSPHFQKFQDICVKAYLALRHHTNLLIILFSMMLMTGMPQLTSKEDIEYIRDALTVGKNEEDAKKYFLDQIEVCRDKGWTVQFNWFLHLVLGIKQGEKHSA

## Cc1nc(NC(=O)N2CCC[C@H]2C(N)=O)sc1-c1csc(C(C)(C)C)n1 [A66]
[1]
  phenotype of CD8 T cells (TCM vs TEM) compared to non-treated cells: no differences in the phenotype

## Cc1cc(C(C)Nc2ccccc2)c2nc(N3CCOCC3)cc(=O)n2c1 (centres unmarked) [TGX-221]
[1]
  phenotype of CD8 T cells (TCM vs TEM) compared to non-treated cells: no differences in the phenotype
p110α
  IC50: 5 µM
p110δ
  IC50: 100 nM
p110γ
  IC50: > 10 µM

## CS(=O)(=O)N1CCN(Cc2cc3nc(-c4cccc5[nH]ncc45)nc(N4CCOCC4)c3s2)CC1 [GDC-0941]
[1]; GDC at the highest concentration, non-treated cells 96% TEM
  percentage of TCM phenotype (CD62LhiCD44hi): 37%
[1]; GDC treatment, after the third stimulation, non-treated 64%
  percentage of TEM: 93%
[1]; GDC treatment, after the third stimulation, non-treated less than 0.01
  percentage of TCM: 3.5%
[1]; listed as GDC
  phenotype of CD8 T cells (TCM vs TEM) compared to non-treated cells: high percentage of the TCM phenotype; also recorded: high percentage of TCM cells
  CD62L expression level: maintained high expression levels of CD62L
[1]; after the second and third stimulations
  phenotype of CD8 T cells (TEM, terminally differentiated) compared to non-treated or other inhibitors: higher percentage of TEM
[1]; after the third stimulation, highest GDC concentration, non-treated 36%
  percentage of terminally differentiated T-cells (CD62LloCD44lo): 4%
[1]
  CD62L expression level: maintains a high level of CD62L expression
[2]; highest dose tested (279 nM)
  toxicity to CD8 T cells: toxic
[2]; with further stimulations (days 7 and 14), vs non-treated cells
  expansion of CD8 T cells: expand at a significantly high rate
[3]; GDC-0941, A66 (288 nM), TGX-221 (45 nM), CAL-101 (202.5 nM), re-stimulated days 7 and 14, supernatant after 24 hours
  ability of CD8 T cells to produce IFNγ and TNF: not affected
[3]; after re-stimulation (stimulation 3), normalized to GP100, GDC 99 nM, CAL-101 202.5 nM, listed as GDC
  IL-2 secretion: significantly higher levels of IL-2; also recorded: maintained a significantly high level of IL-2 secretion

## CC[C@H](Nc1ncnc2[nH]cnc12)c1nc2cccc(F)c2c(=O)n1-c1ccccc1 [CAL-101]
[1]; D3, stim1, representative example, non-treated 4%
  percentage of TCM: 32%
[1]; D7, Stim 3, representative example, non-treated 36%
  percentage of terminally differentiated T-cells: 5%
[1]; D7, Stim3, representative example, non-treated 64%
  percentage of TEM cells (CD62LloCD44hi): 95%
